Results as given in patent publication EP2857388A1, “Azoles containing sulfone” (Grünenthal GmbH, priority 2013, dated 2015).

Target: T1, human B1R (Homo sapiens, UniProt P46663)
T1 construct: expressed in transfected cells; host or cells: CHO K1 cells (Chinese Hamster Ovary), stably transfected
T1 sequence (P46663 1-353): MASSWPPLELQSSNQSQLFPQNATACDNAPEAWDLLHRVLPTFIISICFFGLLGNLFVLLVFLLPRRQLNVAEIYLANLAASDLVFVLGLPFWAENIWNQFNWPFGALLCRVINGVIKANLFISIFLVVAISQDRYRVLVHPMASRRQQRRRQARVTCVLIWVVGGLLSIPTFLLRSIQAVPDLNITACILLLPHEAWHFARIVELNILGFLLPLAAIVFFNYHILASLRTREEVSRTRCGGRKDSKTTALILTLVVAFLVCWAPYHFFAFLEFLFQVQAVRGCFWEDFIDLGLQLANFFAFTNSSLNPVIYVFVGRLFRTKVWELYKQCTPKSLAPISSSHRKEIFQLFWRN
Test: Functional assay at bradykinin receptor 1 (B1R): Ca2+ fluorescence (Fluo-4) in FLIPR/Novostar, antagonist mode
Format: cell-based
Details: test substance 10 µM, CHO K1 cells stably transfected with human B1R gene (hB1R-Zellen), agonist Lys-Des-Arg9-Bradykinin at EC80, % inhibition relative to maximal achievable inhibition; for inhibition at 10 µM: read-out: % Inhibierung (human B1R) bei 10 µM
Procedure: Die agonistische bzw. antagonistische Wirkung von Substanzen kann am Bradykinin Rezeptor 1 (B1R) der Spezies Mensch und Ratte mit ektopisch exprimierenden Zelllinien (CHO K1 Zellen) und mit Hilfe eines Ca^2+-sensitiven Farbstoffs (Fluo-4) im Fluorescent Imaging Plate Reader (FLIPR) quantifiziert werden. Die Angabe in % Aktivierung wird bezogen auf das Ca^2+-Signal nach Zugabe von Lys-Des-Arg^9-Bradykinin ([…]), bzw. Des-Arg^9-Bradykinin (100 nM). Antagonisten führen zu einer Unterdrückung des Ca^2+-Einstroms nach der Zugabe des Agonisten. Angegeben werden % Inhibition im Vergleich zu der maximal erreichbaren Inhibition.
Die agonistische bzw. antagonistische Wirkung von Substanzen kann am Bradykinin Rezeptor 1 (B1R) der Spezies Mensch und Ratte mit folgendem Assay bestimmt werden. Gemäß diesem Assay wird der intrazelluläre Ca^2+-Anstieg nach Gabe eines B1 R Agonisten mit Hilfe eines Ca^2+-sensitiven Farbstoffs (Typ Fluo-4, Molecular Probes Europe BV, Leiden NL) im Fluorescent Imaging Plate Reader (FLIPR, Molecular Devices, Sunnyvale, USA) und/oder im Novostar (BMG Labtech GmbH, Offenburg, DE) quantifiziert.
Es werden Chinese Hamster Ovary Zellen (CHO K1 Zellen) verwendet, die stabil mit dem humanen B1 R-Gen (hB1R-Zellen) bzw. dem B1 R-Gen der Ratte (rB1R-Zellen) transfiziert sind. Für funktionelle Untersuchungen werden diese Zellen auf schwarze 96-Loch-Platten mit klarem Boden (BD Biosciences, Heidelberg, DE oder Greiner, Frickenhausen, DE) in einer Dichte von 20.000 - 35.000 Zellen/Loch ausplattiert. Über Nacht werden die Zellen bei 37°C und 5 % CO2 in Kulturmedium (hB1 R-Zellen: Nutrient Mixture Ham's F12, Gibco Invitrogen GmbH, Karlsruhe, Deutschland oder DMEM, Sigma-Aldrich, Taufkirchen, Deutschland; rB1R-Zellen: D-MEM/F12, Gibco Invitrogen GmbH, Karlsruhe, DE) mit 10 Vol-% FBS (Fetal bovine serum, Gibco Invitrogen GmbH, Karlsruhe, DE oder PAN Biotech GmbH, Aidenbach, DE) belassen. Am folgenden Tag werden die Zellen mit 2,13 µM Fluo-4 (Molecular Probes Europe BV, Leiden, NL) in HBSS-Puffer (Hank's buffered saline solution, Gibco Invitrogen GmbH, Karlsruhe, DE) mit 2,5 mM Probenecid (Sigma-Aldrich, Taufkirchen, DE) und 10 mM HEPES (Sigma-Aldrich, Taufkirchen, DE) für 60 min bei 37°C beladen. Anschließend werden die Platten 2 x mit HBSS-Puffer gewaschen und mit HBSS-Puffer versetzt, der zusätzlich 0,1 % BSA (bovines Serumalbumin; Sigma-Aldrich, Taufkirchen, Deutschland), 5,6 mM Glucose und 0,05 % Gelatine (Merck KGaA, Darmstadt, DE) enthält. Nach einer weiteren Inkubation von 20 Minuten bei RT werden die Platten zur Ca^2+-Messung im FLIPR oder Novostar eingesetzt. Alternativ wird mit Puffer A (15 mM HEPES, 80 mM NaCl, 5 mM KCI, 1,2 mM CaCl2, 0,7 mM MgSO4, 2g/L Glucose, 2,5 mM Probenecid) gewaschen und mit Puffer A versetzt mit 2,5 µM Fluo-4 und 0,025 % Pluronic F127 (Sigma-Aldrich, Taufkirchen, DE) beladen. Danach werden die Zellen 2 x mit Puffer A gewaschen und für 30 Minuten mit Puffer A, der zusätzlich 0,05 % BSA und 0,05 % Gelatine enthält bei RT inkubiert und danach zur Ca^2+-Messung im FLIPR oder Novostar eingesetzt.
Die Ca^2+-abhängige Fluoreszenz wird dabei vor und nach Zugabe von Substanzen gemessen (λex = 488 nm, λem = 540 nm). Die Quantifizierung erfolgt durch die Messung der höchsten Fluoreszenzintensität (FC, Fluorescence Counts) über die Zeit.
Das FLIPR-Protokoll besteht aus 2 Substanzzugaben, die im FLIPR pipettiert werden. Bei Messungen im Novostar wird nur die zweite Substanzzugabe im Gerät pipettiert. Beide Geräte messen die Fluoreszenzintensität über die Zeit. Zunächst werden Testsubstanzen (10 µM) auf die Zellen pipettiert und der intrazelluläre Ca^2+-Anstieg mit der Kontrolle (hB1 R: Lys-Des-Arg^9-Bradykinin >= 50 nM; rB1 R: Des-Arg^9-Bradykinin >= 1 µM) verglichen. Daraus ergibt sich die Angabe in % Aktivierung bezogen auf das Ca^2+-Signal nach Zugabe von Lys-Des-Arg^9-Bradykinin (>= 50 nM), bzw. Des-Arg^9-Bradykinin (>=1 µM). Nach 6-20 Minuten Inkubation werden Lys-Des-Arg^9-Bradykinin (hB1 R) bzw. […]

Row | Compound | inhibition at 10 µM [%] | % Inhibierung (human B1R) bei 10 µM [%]
1 | COc1cc(C)c(S(=O)(=O)Cc2cn(CC(=O)NC3CCN(C(C)=O)CC3(C)C)nn2)c(C)c1 (stereo not shown) [CC-161, N-(1-Acetyl-3,3-dimethyl-piperidin-4-yl)-2-[4-[[(4-methoxy-2,6-dimethyl-phenyl)sulfonyl]-methyl]-1H-[1,2,3]triazol-1-yl]-acetamid] | 92 | 
2 | CC(=O)N1CCC(NC(=O)Cc2nc(CS(=O)(=O)c3cccc(Cl)c3Cl)no2)C(C)(C)C1 (stereo not shown) [CC-47, N-(1-Acetyl-3,3-dimethyl-piperidin-4-yl)-2-[3-[[(2,3-dichlor-phenyl)sulfonyl]-methyl]-[1,2,4]oxa-diazol-5-yl]-acetamid] | 62 | 
3 | 2-[3-[[(4-Chlor-2,5-dimethyl-phenyl)sulfonyl]-methyl]-[1,2,4]oxadiazol-5-yl]-N-cyclopropyl-N-(4-dimethylamino-cyclohexyl)-acetamid [CC-113] |  | 90
4 | COc1cc(C)c(S(=O)(=O)Cc2c(C)nn(CC(=O)NC3CCNCC3)c2C)c(C)c1 [CC-173, 2-[4-[[(4-Methoxy-2,6-dimethyl-phenyl)sulfonyl]-methyl]-3,5-dimethyl-1H-pyrazol-1-yl]-N-piperidin-4-yl-acetamid] | 85 | 
5 | COc1cc(C)c(S(=O)(=O)Cc2nc(CC(=O)NC3CCNCC3(C)C)no2)c(C)c1 (stereo not shown) [CC-52, N-(3,3-Dimethyl-piperidin-4-yl)-2-[5-[[(4-methoxy-2,6-dimethyl-phenyl)sulfonyl]-methyl]-[1,2,4]oxa-diazol-3-yl]-acetamid] | 100 | 
6 | CC1(C)CC(N2CCCC2)CCC1NC(=O)Cc1nc(CS(=O)(=O)c2ccc(Cl)c(Cl)c2)no1 (stereo not shown) [CC-53, 2-[3-[[(3,4-Dichlorphenyl)sulfonyl]-methyl]-[1,2,4]oxadiazol-5-yl]-N-(2,2-dimethyl-4-pyrrolidin-1-yl-cyclohexyl)-acetamid] | 100 | 
7 | COc1cc(C)c(S(=O)(=O)Cc2noc(CC(=O)N3CCN(Cc4ccc(N5CCCC5)nc4)CC3)n2)c(C)c1 [SC-62, 2-[3-[[(4-Methoxy-2,6-dimethyl-phenyl)sulfonyl]-methyl]-[1,2,4]oxadiazol-5-yl]-1-[4-[(6-pyrrolidin-1-yl-pyridin-3-yl)-methyl]-piperazin-1-yl]-ethanon] | 100 | 
8 | COc1cc(C)c(S(=O)(=O)Cc2noc(CC(=O)N3[C@@H]4CC[C@H]3CC(Oc3ccncc3)C4)n2)c(C)c1 (stereo partly drawn) [CC-135, 2-[3-[[(4-Methoxy-2,6-dimethyl-phenyl)sulfonyl]-methyl]-[1,2,4]oxadiazol-5-yl]-1-[(1S, 5R)-3-pyridin-4-yloxy-8-azabicyclo[3.2.1]octan-8-yl]-ethanon] | 98 | 
9 | COc1cc(C)c(S(=O)(=O)Cc2cn(CC(=O)NC3CCC(c4ccncc4)CC3(C)C)nn2)c(C)c1 (stereo not shown) [CC-178, N-(2,2-Dimethyl-4-pyridin-4-yl-cyclohexyl)-2-[4-[[(4-methoxy-2,6-dimethyl-phenyl)sulfonyl]-methyl]-1 H-[1,2,3]triazol-1-yl]-acetamid] | 100 | 
10 | COc1cc(C)c(S(=O)(=O)Cc2noc(CC(=O)N(C)CCC3CCN(c4ccncc4)CC3)n2)c(C)c1 [CC-06, 2-[3-[[(4-Methoxy-2,6-dimethyl-phenyl)sulfonyl]-methyl]-[1,2,4]oxadiazol-5-yl]-N-methyl-N-[2-(1-pyridin-4-yl-piperidin-4-yl)-ethyl]-acetamid] | 100 | 
11 | COCCN1CCC(NC(=O)Cc2nc(CS(=O)(=O)c3cc(C)c(Cl)cc3C)no2)C(C)(C)C1 (stereo not shown) [CC-77, 2-[3-[[(4-Chlor-2,5-dimethyl-phenyl)sulfonyl]-methyl]-[1,2,4]oxadiazol-5-yl]-N-[1-(2-methoxy-ethyl)-3,3-dimethyl-piperidin-4-yl]-acetamid] | 80 | 

The next lines start with the values.

Row | inhibition at 10 µM [%] | % Inhibierung (human B1R) bei 10 µM [%] | Compound
12 | 100 |  | COc1cc(C)c(S(=O)(=O)Cc2noc(CC(=O)N(C)C3CCC(N4CCN(C)CC4)CC3)n2)c(C)c1 (stereo not shown) [SC-58, 2-[3-[[(4-Methoxy-2,6-dimethyl-phenyl)sulfonyl]-methyl]-[1,2,4]oxadiazol-5-yl]-N-methyl-N-[4-(4-methyl-piperazin-1-yl)-cyclohexyl]-acetamid]
13 | 99 |  | COc1cc(C)c(S(=O)(=O)Cc2noc(C(=O)N3CCN(Cc4ccnc(N5CCCC5)c4)CC3)n2)c(C)c1 [SC-60, [3-[[(4-Methoxy-2,6-dimethyl-phenyl)sulfonyl]-methyl]-[1,2,4]oxadiazol-5-yl]-[4-[(2-pyrrolidin-1-yl-pyridin-4-yl)-methyl]-piperazin-1-yl]-methanon]
14 | 99 |  | COc1cc(C)c(S(=O)(=O)Cc2noc(C(=O)N3CCC4(CCC(Oc5ccncc5)CC4)CC3)n2)c(C)c1 [SC-09, [3-[[(4-Methoxy-2,6-dimethyl-phenyl)sulfonyl]-methyl]-[1,2,4]oxadiazol-5-yl]-(9-pyridin-4-yloxy-3-azaspiro[5.5]undecan-3-yl)-methanon]
15 | 99 |  | COc1cc(C)c(S(=O)(=O)Cc2noc(C(=O)NC3CCN(c4ccncc4)CC3)n2)c(C)c1 [SC-01, 3-[[(4-Methoxy-2,6-dimethyl-phenyl)sulfonyl]-methyl]-N-(1-pyridin-4-yl-piperidin-4-yl)-[1,2,4]oxadiazol-5-carbonsäure amid]
16 | 100 |  | COc1cc(C)c(S(=O)(=O)Cc2noc(C(=O)N3CCC4(CC3)CCN(c3ccncc3)CC4)n2)c(C)c1 [SC-10, [3-[[(4-Methoxy-2,6-dimethyl-phenyl)sulfonyl]-methyl]-[1,2,4]oxadiazol-5-yl]-(9-pyridin-4-yl-3,9-diazaspiro[5.5]undecan-3-yl)-methanon]
17 | 100 |  | COc1cc(C)c(S(=O)(=O)Cc2noc(CC(=O)NC3CCN(C4CCOCC4)CC3(C)C)n2)c(C)c1 (stereo not shown) [SC-39, N-(3,3-Dimethyl-1-tetrahydro-pyran-4-yl-piperidin-4-yl)-2-[3-[[(4-methoxy-2,6-dimethyl-phenyl)sulfonyl]-methyl]-[1,2,4]oxadiazol-5-yl]-acetamid]
18 | 100 |  | COc1cc(C)c(S(=O)(=O)Cc2noc(C(=O)N3CCN(Cc4ccc(N5CCCC5)nc4)CC3)n2)c(C)c1 [SC-61, [3-[[(4-Methoxy-2,6-dimethyl-phenyl)sulfonyl]-methyl]-[1,2,4]oxadiazol-5-yl]-[4-[(6-pyrrolidin-1-yl-pyridin-3-yl)-methyl]-piperazin-1-yl]-methanon]
19 | 99 |  | COc1cc(C)c(S(=O)(=O)Cc2noc(C(=O)N3CCC(Cc4ccncc4)CC3)n2)c(C)c1 [SC-08, [3-[[(4-Methoxy-2,6-dimethyl-phenyl)sulfonyl]-methyl]-[1,2,4]oxadiazol-5-yl]-[4-(pyridin-4-yl-methyl)-piperidin-1-yl]-methanon]
